Results from US20250059139A1, “COMPOUNDS FOR TREATMENT OF CANCER” (THE JOHNS HOPKINS UNIVERSITY, priority 2021, published 2025).
Read-outs that look alike come from different tables or passages of the source.

Legend:
thymus = test: AHR agonist induced thymus regression in FVB male mice; assay type: in vivo, mouse; details: mouse, in vivo, po, 30 mg/kg/day
Description: To evaluate AHR agonist induced thymus regression, groups of five 4-week old FVB male mice from Jackson Laboratory were treated with either vehicle, Linomide, TasQ, or its analogs daily by orally gavage for 2 weeks and then the thymus removed and weighted.
Oral Drug treatment. TasQ at the indicated dose was initially dissolved with equal molar 1 N sodium hydroxide. This solution was diluted with sterile water and the mixture stirred for 1 hr. The pH was then adjusted with 1 N HCl to 8.9 and 200 μL given daily via oral gavage.
This means that in the clinical setting, dose-escalation above 1 mg/d of TasQ as needed to reach this >2 μM blood level for optimal anti-cancer efficacy will also enhance unwanted off-target AHR induction. Therefore, a medicinal chemical approach was undertaken to identify third generation quinoline-3-carboxamide analogs with increased HDAC4 inhibition, but with reduced AHR agonism. The approach taken is based upon the earlier SPR analysis documenting that TasQ linked to the surface chip via its aniline-N is a potent binder of HDAC4. Thus, a series of quinoline-3-carboxamide analogs were synthesized focusing upon adduct changes at the aniline-N. These analogs were synthesized as described in Example 1, and were initially screened for their AHR agonist activity using the in vitro human cell-based ARE-driven luciferase reporter gene assay (Table 3).

HDAC4-NCoR1 complex = target: T1, HDAC4-NCoR1 complex (Homo sapiens, UniProt P56524); test: SPR inhibition of HDAC4-NCoR1 interaction; assay type: binding
T1 construct: Full-length (fl) [A.A. 1-1082] recombinant human histone deacetylase 4 (rhHDAC4) protein; FLAG (N); GST (given as 'with or without'); host or cells: HEK293-T (HDAC4)
Description: (§1) Surface Plasmon Resonance (SPR) Binding Analysis. SPR analysis was performed on the Biacore 3000™ system using CM5 sensor chips, certified buffers (HBS-P—10 mM HEPES, 0.15 M NaCl, pH 7.4, containing 0.005% v/v Surfactant P; HBS-EP-HBS-P with 3 mM EDTA) and reagents for immobilization and surface regeneration from Biacore, GE Healthcare, Uppsala Sweden. Evaluation of sensorgrams was performed using the BIA-evaluation Software version 4.1 and GraphPad Prism 4. Buffer of protein reagents were changed to HBS-P on Zeba spin desalting columns (Thermo Scientific) prior to being used in SPR analysis (Isaacs 2013).
C. Inhibition of HDAC4-NCoR1 interaction by TasQ. The interaction between HDAC4 and NCoR1 was studied either by injecting NCoR over immobilized HDAC4 or with an alternative orientation where HDAC4 was passed over a surface with covalently coupled NCoR1. Whether TasQ can inhibit the formation of the functional HDAC4-NCoR1 complex was tested by pre-incubation with NCoR1 or HDAC4.
To confirm that TasQ inhibits formation of the functional complex between HDAC4 and NCoR1, fl-NCoR1 in solution was injected over immobilized fl-HDAC4 after pre-incubation with TasQ in solution at concentrations ranging from 1 to 100 μM (FIG. 19). […] TasQ in solution inhibits this strong interaction by 50% at 10 μM (FIG. 20). […]

[1] = target: T2, fl-R681A/R798A double mutant HDAC4 (Homo sapiens, UniProt P56524, R681A/R798A); test: SPR binding of fl-R681A/R798A double mutant HDAC4 to immobilized TasQ; details: TasQ in solution
T2 construct: Full-length (fl) [A.A. 1-1082] recombinant human histone deacetylase 4 (rhHDAC4) protein; FLAG (N); GST (given as 'with or without'); made in house; host or cells: HEK293-T
Description: as §1
A. Binding of wild-type and mutant forms of HDAC4 to immobilized TasQ. TasQ (ABR-215050; mol wt 406.4) was dissolved as a 40 mM solution in water with 1.5 equivalents of NaOH. TasQ with an amino-linker [i.e. —(CH2)2O(CH2)2—NH2](ABR-225180) in amide nitrogen position was used for amine coupling on to a Biacore CM5 sensor chip. A 1 mg/mL solution of ABR-225180 in HBS-P buffer was prepared and immobilized on a CM5 chip by injection at a flow rate of 5 or 10 μL/min until a stable response level was reached. Interaction of various HDAC4 forms with immobilized TasQ was studied by injection over this surface in HBS-P buffer containing 10 or 20 μM ZnCl2. Bound HDAC4 was removed by a pulse of 3 mM EDTA in HBS-P or 0.5 to 6.25 mM NaOH in water. […]

fl-HDAC4 (wild-type) = target: T3, fl-HDAC4 (wild-type) (Homo sapiens, UniProt P56524); test: SPR binding analysis TasQ / fl-HDAC4
T3 construct: Full-length (fl) [A.A. 1-1082] recombinant human histone deacetylase 4 (rhHDAC4) protein; FLAG (N); GST (given as 'with or without'); made in house; host or cells: HEK293-T
Description: as §1
A. Binding of wild-type and mutant forms of HDAC4 to immobilized TasQ. TasQ (ABR-215050; mol wt 406.4) was dissolved as a 40 mM solution in water with 1.5 equivalents of NaOH. TasQ with an amino-linker [i.e. —(CH2)2O(CH2)2—NH2](ABR-225180) in amide nitrogen position was used for amine coupling on to a Biacore CM5 sensor chip. A 1 mg/mL solution of ABR-225180 in HBS-P buffer was prepared and immobilized on a CM5 chip by injection at a flow rate of 5 or 10 μL/min until a stable response level was reached. Interaction of various HDAC4 forms with immobilized TasQ was studied by injection over this surface in HBS-P buffer containing 10 or 20 μM ZnCl2. Bound HDAC4 was removed by a pulse of 3 mM EDTA in HBS-P or 0.5 to 6.25 mM NaOH in water. In a second series of experiments, the ability of TasQ in solution to displace this binding was studied by pre-incubation of HDAC4 with TasQ as competitor.
B. Binding of TasQ to immobilized HDAC4 and NCoR1. Different variants of HDAC4 (full-length wild-type and mutant forms and the truncated protein) and full-length NCoR1 were immobilized on a CM5 chip using random amine coupling. Briefly, proteins were dissolved in 10 mM sodium acetate buffer at pH 5.0 or 5.5 and immobilized to the aimed level using the standard protocol from GE Healthcare. Serially diluted TasQ in HBS-P buffer with 10 or 20 μM Zn was injected (for 2 or 3 min at a flow rate of 30 μl/min) either directly or after a 1st injection of 1 mM DTT to reduce cysteines in the zinc conformation site in HDAC4. Regeneration was made with a short pulse of HBS-EP.
To evaluate the conformational requirements for TasQ's binding to HDAC4, surface plasmon resonance (SPR) analysis was utilized. To maximize conformational flexibility, TasQ is immobilized onto the surface of a Biacore CM5 sensor chip via an amino-linker [i.e. —(CH2)2—O—(CH2)2—NH2] in its amide nitrogen position.
By comparison, Linomide even at >30 μM in solution binds only 10-15% of the immobilized fl-HDAC4 protein despite the presence of Zn^+2 (FIG. 14). […] The fact that the KD for binding of soluble TasQ to immobilized fl-HDAC4 is higher than the KD for binding of soluble fl-HDAC4 with immobilized TasQ is predictable. This is because the conformational dynamics of fl-HDAC4 protein immobilized on the chip are more restrictive due to the multiple random amine coupling than the conformational dynamics of TasQ immobilized via a single amino-linker.
To address this possibility, a competitive binding assay was developed based upon the ability of TasQ in solution to compete with immobilized TasQ on the SPR-chip for binding to fl-HDAC4.

T3 sequence (P56524 whole entry): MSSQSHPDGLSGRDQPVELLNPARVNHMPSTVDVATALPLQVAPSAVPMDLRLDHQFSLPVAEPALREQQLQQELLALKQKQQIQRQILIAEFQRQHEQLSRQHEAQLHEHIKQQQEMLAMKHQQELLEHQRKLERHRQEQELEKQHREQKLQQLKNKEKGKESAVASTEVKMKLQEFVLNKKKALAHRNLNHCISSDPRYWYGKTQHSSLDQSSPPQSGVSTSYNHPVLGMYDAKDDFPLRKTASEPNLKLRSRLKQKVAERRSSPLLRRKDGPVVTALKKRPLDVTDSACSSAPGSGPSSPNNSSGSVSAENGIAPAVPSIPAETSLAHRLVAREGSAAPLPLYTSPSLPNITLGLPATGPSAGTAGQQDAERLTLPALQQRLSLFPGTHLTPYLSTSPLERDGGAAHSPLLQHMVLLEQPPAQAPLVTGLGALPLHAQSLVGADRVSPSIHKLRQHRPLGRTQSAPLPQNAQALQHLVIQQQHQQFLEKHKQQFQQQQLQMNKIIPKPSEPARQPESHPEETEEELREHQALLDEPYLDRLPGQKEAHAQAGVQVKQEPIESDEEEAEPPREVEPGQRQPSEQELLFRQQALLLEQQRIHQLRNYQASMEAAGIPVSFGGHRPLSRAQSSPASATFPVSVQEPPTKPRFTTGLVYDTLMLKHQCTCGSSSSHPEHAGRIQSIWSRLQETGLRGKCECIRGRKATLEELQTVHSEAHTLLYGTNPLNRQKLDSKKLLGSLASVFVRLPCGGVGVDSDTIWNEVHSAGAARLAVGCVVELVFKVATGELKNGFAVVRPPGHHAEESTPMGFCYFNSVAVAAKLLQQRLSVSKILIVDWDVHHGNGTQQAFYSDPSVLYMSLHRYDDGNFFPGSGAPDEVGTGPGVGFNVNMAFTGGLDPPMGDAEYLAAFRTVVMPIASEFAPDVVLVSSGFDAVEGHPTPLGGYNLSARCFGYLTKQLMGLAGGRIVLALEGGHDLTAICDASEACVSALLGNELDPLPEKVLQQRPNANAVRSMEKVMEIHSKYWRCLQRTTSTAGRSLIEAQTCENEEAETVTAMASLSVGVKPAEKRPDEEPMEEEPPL
T1 sequence (P56524 whole entry, one chain of several): as the sequence (P56524 whole entry) above
T2 sequence (P56524 whole entry R681A/R798A): as the sequence (P56524 whole entry) above, with R681A, R798A counted along it

Row | SMILES | induction of thymus regression (thymus) | inhibition at 10 µM (HDAC4-NCoR1 complex; at 10 μM, read-out: inhibition of fl-NCoR1 binding to immobilized fl-HDAC4) [%] | IC50 (HDAC4-NCoR1 complex; sigmoidal dose-response fit, read-out: IC50 for competitive inhibition of fl-HDAC4 binding to immobilized NCoR1) [µM] | competitive displacement of mutant HDAC4 from immobilized TasQ [1] | IC50 (fl-HDAC4 (wild-type); competitive SPR assay, read-out: IC50 of TasQ in solution to reduce binding of fl-wild-type HDAC4 to immobilized TasQ) [µM] | Kd (fl-HDAC4 (wild-type); compound in solution, immobilized fl-HDAC4, n=4, read-out: KD) [µM] | Kd (fl-HDAC4 (wild-type); fl-HDAC4 in solution, immobilized amine-linked TasQ, Zn2+, read-out: KD calculated from the on- and off-rates) [µM] | Kd (fl-HDAC4 (wild-type); fl-HDAC4 in solution, immobilized amine-linked TasQ, Zn2+, read-out: KD from the steady state dose-response curve) [µM]
1 | COc1cccc2c1c(O)c(C(=O)N(c1ccc(C(F)(F)F)cc1)C1CCCCC1)c(=O)n2C [ESATA-20] | lack of induction |  |  |  |  |  |  | 
2 | COc1cccc2c1c(O)c(C(=O)N(C)c1ccc(C(F)(F)F)cc1)c(=O)n2C [TasQ, Tasquinimod] |  | 50 | 1.1 | not competitively displaced | 1.3 | 4.9 | ~0.02 | ~0.13
